Results taken from ChEMBL document CHEMBL2412968, “Tetrazole-based deoxyamodiaquines: synthesis, ADME/PK profiling and pharmacological evaluation as potential antimalarial agents” (Bioorg Med Chem, 2013).
Values after ≈ are worked out from the molar mass of the structure shown.

How the values were obtained:
Plasmodium falciparum [1] = assay: Antiplasmodial activity chloroquine-resistant Plasmodium falciparum K1 infected in human A+ erythrocytes assessed as reduction of [3H]hypoxanthine incorporation after 24 hrs by scintillation counting; format: functional, organism-based
physchem [2] = settings: phosphate buffered saline, pH 7.4
Cytochrome P450 2C8 = biological target: T1, Cytochrome P450 2C8 (Homo sapiens, UniProt P10632); assay: Inhibition of CYP2C8 in human liver microsomes assessed as paclitaxel 6alpha-hydroxylation after 20 mins by LC-MS analysis; format: ADME, Microsome
T1 sequence (P10632 whole entry): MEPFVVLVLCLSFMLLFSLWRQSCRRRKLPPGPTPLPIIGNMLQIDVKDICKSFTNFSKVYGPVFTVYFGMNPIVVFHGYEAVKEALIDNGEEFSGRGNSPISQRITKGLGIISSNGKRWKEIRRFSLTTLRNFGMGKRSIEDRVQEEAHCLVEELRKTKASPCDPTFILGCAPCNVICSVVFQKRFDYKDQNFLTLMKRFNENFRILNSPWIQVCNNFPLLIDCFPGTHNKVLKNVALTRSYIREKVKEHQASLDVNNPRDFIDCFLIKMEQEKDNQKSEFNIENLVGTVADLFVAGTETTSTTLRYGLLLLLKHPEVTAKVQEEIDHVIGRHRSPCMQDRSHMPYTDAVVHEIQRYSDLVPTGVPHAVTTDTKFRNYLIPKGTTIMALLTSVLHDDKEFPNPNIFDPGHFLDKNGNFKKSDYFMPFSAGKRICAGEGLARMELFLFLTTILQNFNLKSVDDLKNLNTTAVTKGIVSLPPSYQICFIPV

Cytochrome P450 2D6 = Cytochrome P450 2D6 (Homo sapiens, UniProt P10635); assay: Inhibition of CYP2D6 in human liver microsomes assessed as bufuralol 1'-hydroxylation after 20 mins by LCMS analysis; format: ADME, Microsome
Cytochrome P450 2C9 = Cytochrome P450 2C9 (Homo sapiens, UniProt P11712); assay: Inhibition of CYP2C9 in human liver microsomes assessed as diclofenac 4'-hydroxylation after 20 mins by LCMS analysis; format: ADME, Microsome
physchem [3] = settings: 0.01 M HCl, pH 2
Cytochrome P450 2A6 = biological target: T2, Cytochrome P450 2A6 (Homo sapiens, UniProt P11509); assay: Inhibition of CYP2A6 in human liver microsomes assessed as coumarin 7-hydroxylation after 20 mins by LC-MS analysis; format: ADME, Microsome
T2 sequence (P11509 whole entry): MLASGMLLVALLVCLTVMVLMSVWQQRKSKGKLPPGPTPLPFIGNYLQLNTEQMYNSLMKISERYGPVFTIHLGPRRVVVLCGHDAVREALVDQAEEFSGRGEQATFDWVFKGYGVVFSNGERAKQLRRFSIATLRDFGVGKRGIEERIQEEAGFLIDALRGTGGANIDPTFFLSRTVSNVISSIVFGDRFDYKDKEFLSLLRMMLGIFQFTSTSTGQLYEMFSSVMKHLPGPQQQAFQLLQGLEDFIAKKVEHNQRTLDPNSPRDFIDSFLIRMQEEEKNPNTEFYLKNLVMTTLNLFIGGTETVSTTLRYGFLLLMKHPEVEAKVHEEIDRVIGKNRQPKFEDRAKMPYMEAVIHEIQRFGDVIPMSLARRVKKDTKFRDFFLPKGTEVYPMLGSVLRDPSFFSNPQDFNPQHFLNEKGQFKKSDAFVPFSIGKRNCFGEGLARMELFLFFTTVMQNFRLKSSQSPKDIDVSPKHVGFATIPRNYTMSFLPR

Cytochrome P450 1A2 = biological target: T3, Cytochrome P450 1A2 (Homo sapiens, UniProt P05177); assay: Inhibition of CYP1A2 in human liver microsomes assessed as phenacetin O-deethylation after 20 mins by LC-MS analysis; format: ADME, Microsome
T3 sequence (P05177 whole entry): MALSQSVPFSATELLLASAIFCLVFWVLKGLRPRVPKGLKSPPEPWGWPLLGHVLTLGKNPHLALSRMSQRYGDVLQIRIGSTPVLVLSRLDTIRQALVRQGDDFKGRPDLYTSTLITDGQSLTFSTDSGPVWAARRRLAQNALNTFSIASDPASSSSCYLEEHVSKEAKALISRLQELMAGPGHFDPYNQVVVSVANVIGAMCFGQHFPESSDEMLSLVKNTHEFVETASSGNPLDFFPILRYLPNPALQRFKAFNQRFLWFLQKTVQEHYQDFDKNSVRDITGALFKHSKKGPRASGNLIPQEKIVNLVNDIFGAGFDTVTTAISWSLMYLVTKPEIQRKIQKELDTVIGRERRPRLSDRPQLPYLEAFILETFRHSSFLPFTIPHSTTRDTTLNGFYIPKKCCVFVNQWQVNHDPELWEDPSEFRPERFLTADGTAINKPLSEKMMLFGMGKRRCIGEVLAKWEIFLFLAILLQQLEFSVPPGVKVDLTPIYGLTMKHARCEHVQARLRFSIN

Liver microsomes [4] = assay: Drug metabolism in human liver microsomes assessed as formation of N-dealkylation product at 5 uM after 1 hr; format: ADME, Microsome
CHO = assay: Cytotoxicity against CHO cells by MTT assay; format: cell-based; settings: Cricetulus griseus
Cytochrome P450 2B6 = biological target: T4, Cytochrome P450 2B6 (Homo sapiens, UniProt P20813); assay: Inhibition of CYP2B6 in human liver microsomes assessed as bupropion hydroxylation after 20 mins by LC-MS analysis; format: ADME, Microsome
T4 sequence (P20813 whole entry): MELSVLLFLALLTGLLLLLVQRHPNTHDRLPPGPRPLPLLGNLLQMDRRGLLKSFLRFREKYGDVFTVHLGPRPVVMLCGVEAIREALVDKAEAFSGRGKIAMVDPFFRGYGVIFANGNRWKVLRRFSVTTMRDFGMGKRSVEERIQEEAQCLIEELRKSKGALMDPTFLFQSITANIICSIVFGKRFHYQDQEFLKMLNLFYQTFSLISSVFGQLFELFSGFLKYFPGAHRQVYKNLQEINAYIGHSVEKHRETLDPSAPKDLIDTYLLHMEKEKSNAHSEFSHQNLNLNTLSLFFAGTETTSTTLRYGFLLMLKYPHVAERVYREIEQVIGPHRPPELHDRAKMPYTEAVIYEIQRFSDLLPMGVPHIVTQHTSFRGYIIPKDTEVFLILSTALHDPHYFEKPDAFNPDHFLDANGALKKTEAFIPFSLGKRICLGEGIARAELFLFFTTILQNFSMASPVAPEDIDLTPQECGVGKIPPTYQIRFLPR

Liver microsomes [5] = assay: Metabolic stability of the compound in human liver microsomes at 1 uM after 40 mins; format: ADME, Microsome
Liver microsomes [6] = assay: Metabolic stability of the compound in rat liver microsomes at 1 uM after 40 mins; format: ADME, Microsome
Hepatocyte [7] = assay: Drug metabolism in human hepatocytes assessed as formation of N-dealkylation product at 5 uM after 1 hr; format: ADME, cell-based
Plasmodium falciparum [8] = assay: Antiplasmodial activity chloroquine-resistant Plasmodium falciparum W2 using YOYO-1 staining after 48 hrs by FACS analysis; format: functional, organism-based; settings: W2, 48 h
Cytochrome P450 2E1 = Cytochrome P450 2E1 (Homo sapiens, UniProt P05181); assay: Inhibition of CYP2E1 in human liver microsomes assessed as chlorzoxazone 6-hydroxylation after 20 mins by LC-MS analysis; format: ADME, Microsome
Plasmodium falciparum [9] = assay: Antiplasmodial activity chloroquine-sensitive Plasmodium falciparum 3D7 infected in human A+ erythrocytes assessed as reduction of [3H]hypoxanthine incorporation after 24 hrs by scintillation counting; format: functional, organism-based
[10] = Clearance in albino Wistar rat at 1 mg/kg, iv; format: ADME, organism-based; set-up: dose 1 mg/kg, route intravenous; settings: in vivo
Liver microsomes [11] = assay: Metabolic stability in rat liver microsomes assessed as level of GSH adduct at 5 uM after 1 hr; format: ADME, Microsome
Hepatocyte [12] = assay: Metabolic stability in human hepatocytes assessed as level of GSH adduct at 5 uM after 1 hr; format: ADME, cell-based
Liver microsomes [13] = assay: Metabolic stability in human liver microsomes assessed as level of GSH adduct at 5 uM after 1 hr; format: ADME, Microsome
[14] = Half life in albino Wistar rat at 1 mg/kg, iv; format: ADME, organism-based; set-up: dose 1 mg/kg, route intravenous; settings: in vivo
[15] = Volume of distribution at steady state in albino Wistar rat at 1 mg/kg, iv; format: ADME, organism-based; set-up: dose 1 mg/kg, route intravenous; settings: in vivo, read-out: Vdss
Liver microsomes [16] = assay: Drug metabolism in rat liver microsomes assessed as formation of N-dealkylation product at 5 uM after 1 hr; format: ADME, Microsome
[17] = Tmax in albino Wistar rat at 10 mg/kg, po; format: ADME, organism-based; set-up: dose 10 mg/kg, route oral; settings: in vivo
Cytochrome P450 3A4 = Cytochrome P450 3A4 (Homo sapiens, UniProt P08684); assay: Inhibition of CYP3A4 in human liver microsomes assessed as midazolam 1'-hydroxylation after 20 mins by LCMS analysis; format: ADME, Microsome
Hepatocyte [18] = assay: Drug metabolism in rat hepatocytes assessed as formation of oxidation product at 5 uM after 1 hr; format: ADME, cell-based
[19] = Oral bioavailability in albino Wistar rat at 10 mg/kg; format: ADME, organism-based; settings: in vivo
[20] = AUC (infinity) in albino Wistar rat at 1 mg/kg, iv; format: ADME, organism-based; set-up: time infinity, dose 1 mg/kg, route intravenous; settings: plasma
[21] = AUC (infinity) in albino Wistar rat at 10 mg/kg, po; format: ADME, organism-based; set-up: time infinity, dose 10 mg/kg, route oral; settings: plasma
Hepatocyte [22] = assay: Metabolic stability in rat hepatocytes assessed as level of GSH adduct at 5 uM after 1 hr; format: ADME, cell-based
Cytochrome P450 2C19 = Cytochrome P450 2C19 (Homo sapiens, UniProt P33261); assay: Inhibition of CYP2C19 in human liver microsomes assessed as S-mephenytoin 4'-hydroxylation after 20 mins by LCMS analysis; format: ADME, Microsome
[23] = Cmax in albino Wistar rat at 10 mg/kg, po; format: ADME, organism-based; set-up: dose 10 mg/kg, route oral; settings: in vivo

Sequence of Cytochrome P450 2E1 (P05181 whole entry): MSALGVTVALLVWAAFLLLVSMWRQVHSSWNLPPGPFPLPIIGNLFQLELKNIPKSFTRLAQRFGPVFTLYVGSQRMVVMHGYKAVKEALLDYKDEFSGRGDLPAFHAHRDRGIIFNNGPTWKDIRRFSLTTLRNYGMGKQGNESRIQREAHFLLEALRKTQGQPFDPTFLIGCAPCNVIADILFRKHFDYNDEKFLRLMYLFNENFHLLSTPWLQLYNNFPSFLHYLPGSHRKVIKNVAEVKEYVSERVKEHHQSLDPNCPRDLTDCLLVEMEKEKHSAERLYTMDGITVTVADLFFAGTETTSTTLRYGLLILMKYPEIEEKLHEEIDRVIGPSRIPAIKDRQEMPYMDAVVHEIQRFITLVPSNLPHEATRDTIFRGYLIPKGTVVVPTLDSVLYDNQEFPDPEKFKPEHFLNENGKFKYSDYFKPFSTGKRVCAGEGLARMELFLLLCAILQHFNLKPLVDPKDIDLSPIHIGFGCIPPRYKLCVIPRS
Sequence of Cytochrome P450 2C9 (P11712 whole entry): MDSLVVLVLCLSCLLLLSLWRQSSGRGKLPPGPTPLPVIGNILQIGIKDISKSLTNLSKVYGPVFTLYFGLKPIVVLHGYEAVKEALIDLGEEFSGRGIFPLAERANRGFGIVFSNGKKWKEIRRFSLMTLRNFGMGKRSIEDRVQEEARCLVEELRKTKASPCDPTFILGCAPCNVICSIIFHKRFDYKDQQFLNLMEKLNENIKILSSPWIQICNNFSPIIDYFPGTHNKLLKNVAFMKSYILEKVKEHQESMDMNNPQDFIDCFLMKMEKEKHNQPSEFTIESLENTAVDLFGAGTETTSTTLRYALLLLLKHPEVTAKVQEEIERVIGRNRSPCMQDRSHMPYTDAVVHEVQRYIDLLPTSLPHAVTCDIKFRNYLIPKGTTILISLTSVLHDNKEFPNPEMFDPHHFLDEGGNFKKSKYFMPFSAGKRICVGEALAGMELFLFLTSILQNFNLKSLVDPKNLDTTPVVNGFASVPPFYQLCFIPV
Sequence of Cytochrome P450 2D6 (P10635 whole entry): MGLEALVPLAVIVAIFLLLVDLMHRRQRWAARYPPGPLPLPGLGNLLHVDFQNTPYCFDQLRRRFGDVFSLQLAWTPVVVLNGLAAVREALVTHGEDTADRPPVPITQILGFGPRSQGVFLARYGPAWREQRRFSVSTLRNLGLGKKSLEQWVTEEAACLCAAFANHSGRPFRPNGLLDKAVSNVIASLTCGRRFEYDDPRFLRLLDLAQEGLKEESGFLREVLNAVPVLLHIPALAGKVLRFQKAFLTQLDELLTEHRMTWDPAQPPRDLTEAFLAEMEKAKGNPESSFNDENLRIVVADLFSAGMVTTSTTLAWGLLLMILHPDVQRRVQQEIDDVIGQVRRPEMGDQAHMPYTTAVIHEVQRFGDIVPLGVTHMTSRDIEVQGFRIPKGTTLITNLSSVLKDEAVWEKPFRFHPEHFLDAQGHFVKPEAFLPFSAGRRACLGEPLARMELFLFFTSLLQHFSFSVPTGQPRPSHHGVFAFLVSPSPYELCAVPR
Sequence of Cytochrome P450 2C19 (P33261 whole entry): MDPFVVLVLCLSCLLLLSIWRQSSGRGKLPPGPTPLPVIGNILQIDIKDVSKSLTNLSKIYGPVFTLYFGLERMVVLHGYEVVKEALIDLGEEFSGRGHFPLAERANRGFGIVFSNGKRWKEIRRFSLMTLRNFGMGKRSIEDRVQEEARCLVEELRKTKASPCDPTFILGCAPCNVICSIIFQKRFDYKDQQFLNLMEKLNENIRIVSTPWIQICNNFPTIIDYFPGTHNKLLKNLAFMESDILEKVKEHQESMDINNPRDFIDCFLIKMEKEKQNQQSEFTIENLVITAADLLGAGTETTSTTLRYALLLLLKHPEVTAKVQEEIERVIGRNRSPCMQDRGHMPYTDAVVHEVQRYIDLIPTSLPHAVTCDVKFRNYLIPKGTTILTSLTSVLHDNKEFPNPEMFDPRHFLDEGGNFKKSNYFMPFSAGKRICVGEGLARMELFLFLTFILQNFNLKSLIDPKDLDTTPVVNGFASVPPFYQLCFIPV
Sequence of Cytochrome P450 3A4 (P08684 whole entry): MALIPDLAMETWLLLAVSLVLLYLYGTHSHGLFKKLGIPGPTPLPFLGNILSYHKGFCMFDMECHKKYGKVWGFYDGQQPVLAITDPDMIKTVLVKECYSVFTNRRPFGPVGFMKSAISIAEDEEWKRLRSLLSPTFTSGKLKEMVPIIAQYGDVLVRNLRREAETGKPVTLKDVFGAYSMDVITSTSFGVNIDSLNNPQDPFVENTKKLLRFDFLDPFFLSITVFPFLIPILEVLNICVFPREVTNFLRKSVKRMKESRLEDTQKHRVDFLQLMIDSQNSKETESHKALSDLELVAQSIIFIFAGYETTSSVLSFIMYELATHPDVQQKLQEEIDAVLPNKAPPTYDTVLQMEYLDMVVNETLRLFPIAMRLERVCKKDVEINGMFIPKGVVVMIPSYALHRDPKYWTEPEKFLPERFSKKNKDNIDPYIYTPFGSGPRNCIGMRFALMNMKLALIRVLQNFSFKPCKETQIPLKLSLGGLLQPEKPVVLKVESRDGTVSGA

SMILES	IC50 (Plasmodium falciparum [1])	solubility kinetic at 2 h (physchem [2])	IC50 (Cytochrome P450 2C8)	IC50 (Cytochrome P450 2D6)	IC50 (Cytochrome P450 2C9)	solubility kinetic at 2 h (physchem [3])	IC50 (Cytochrome P450 2A6)	IC50 (Cytochrome P450 1A2)	IC50 (CHO)	IC50 (Cytochrome P450 2B6)	Stability (Liver microsomes [5])	Stability (Liver microsomes [6])	IC50 (Plasmodium falciparum [8])	IC50 (Cytochrome P450 2E1)	IC50 (Plasmodium falciparum [9])	also measured
CCN(CC)C(c1cccc(Nc2ccnc3cc(Cl)ccc23)c1)c1nnnn1C(C)(C)C (stereo unspecified)	6 nM	< 5 µM	220 nM	2310 nM	2430 nM	> 200 µM	> 20 µM	4.33 µM	111 µM	> 20 µM	Unstable	Unstable	66 nM	> 20 µM	100 nM	Drug metabolism (Liver microsomes [4]): Active; Drug metabolism (Hepatocyte [7]): Active
CC(C)(C)n1nnnc1C(c1cccc(Nc2ccnc3cc(Cl)ccc23)c1)N1CCCC1 (stereo unspecified)	9.6 nM	< 5 µM	120 nM	3460 nM	3140 nM	> 200 µM	> 20 µM	2.54 µM	117 µM	> 20 µM	Unstable	Unstable	77 nM	> 20 µM	10 nM	clearance [10]: 278 mL/min/kg; Stability (Liver microsomes [11]): Stable; Stability (Hepatocyte [12]): Stable; Stability (Liver microsomes [13]): Stable; half-life [14]: 51 min; Vd [15]: 12.2 L/kg; Drug metabolism (Liver microsomes [16]): Active; Tmax [17]: 15 min; IC50 (Cytochrome P450 3A4): 1450 nM; Drug metabolism (Hepatocyte [18]): Active; bioavailability [19]: 3.3%; AUC(0-inf) [20]: 63.5 ng·h/mL; AUC(0-inf) [21]: 21 ng·h/mL; Stability (Hepatocyte [22]): Stable; IC50 (Cytochrome P450 2C19): 13.8 µM; Cmax [23]: 13.3 ng/mL
Clc1ccc2c(Nc3cccc(C(c4nnn[nH]4)N4CCOCC4)c3)ccnc2c1 (stereo unspecified)	1970 nM												1390 nM		2070 nM	
Clc1ccc2c(Nc3cccc(C(c4nnn[nH]4)N4CCCCC4)c3)ccnc2c1 (stereo unspecified)	1260 nM	122 µM (≈ 51.2 µg/mL)				> 200 µM							487 nM		286 nM	
